Laboratory results published in patent US8603545B2, “Cosmetic and pharmaceutical uses of an extract of a plant belonging to the genus Buchholzia” (BASF Beauty Care Solutions France S.A.S., priority 2004, dated 2013).

Columns and labels:
Type in all cases: cell-based
human fibroblasts = assay: Inhibition of UVA effect on human fibroblasts
Description: Aim of the experiment: Determination of the potential of the tested ingredient to reduce negative effects of UV-A radiation on the survival rate of human fibroblasts.
• Seeding of human fibroblasts in a growth medium • Incubation for 3 days at 37° C., CO2=5% (atmosphere: 5% carbon dioxide in air) • Exchange of the growth medium by a medium with a range of concentration of ingredients to be tested • Incubation for 2 days at 37° C., CO2=5% • Exchange of the medium with ingredients by a balanced salt solution and UV-A irradiation (20 J/cm^2) • Recording of released MDA levels by spectro-fluorimetry. (MDA (malonaldialdehyde) is a product of oxidative degradation of lipids from cell membranes) • Recording of intracellular proteins by Bradford's method
Results in % against control (average of 2 assays in triplicate): […]

B16 melanocytes = assay: Inhibition of melanin synthesis, efficacy test on B16 melanocytes
Description: Aim of the experiment: to evaluate the potential of compounds to lower the melanin synthesis; the compounds have been tested on a cell culture of melanocytes called B16. • Seeding of melanocytes in growth medium • Incubation for 3 days at 37° C., CO2=5% (atmosphere: 5% carbon dioxide in air) • Exchange of the growth medium by a medium with a range of concentration of ingredients to be tested • Incubation for 3 days at 37° C., CO2=5% (atmosphere: 5% carbon dioxide in air) • Recording of Cellular levels of protein by Bradford's method • Recording of melanin by a spectrophotometric method (OD at 475 nm) Results in % against control (average of 2 assays in triplicate): […]

human keratinocytes = assay: Inhibition of UVB effect on human keratinocytes
From the text: Aim of the experiment: Determination of the potential of the tested ingredient to reduce negative effects of UV-B radiation on the survival rate of human keratinocytes. It is well known that UV-B radiation induces a cutaneous inflammation by stimulation of enzymes such as phospholipase A2 (PLA2). This enzyme catalyses the release of arachidonic acid which is a precursor of mediators of inflammation like the prostaglandin PGE2. Moreover this membrane stress results in the release of a cytoplasmic enzyme: lactate dehydrogenase (LDH). • Seeding of human keratinocytes in a growth medium • Incubation for 3 days at 37° C., CO2=5% (atmosphere: 5% carbon dioxide in air) • Exchange of the growth medium by balanced salt solution with a range of concentration of ingredients to be tested • Irradiation of keratinocytes by UV-B: 30 mJ/cm^2 • Incubation for 1 day at 37° C., CO2=5% • Recording of cell number by DNA measurement with a fluorescent probe • Recording of the level of released LDH (by an enzymatic reaction) and released PGE2 (by ELISA method) Results in % against control (average of 2 assays in triplicate): […]

[1] = UV-A 20 J/cm2, dose 0.0003 % w/v
[2] = UV-B 30 mJ/cm2, dose 0.03 % w/v

Vitamin E was tested, and the “rate of released MDA from UV-A irradiated fibroblasts (in words)” value (human fibroblasts) was “strongly decreased”, the Intracellular proteins (human fibroblasts; [1]) was 103 % against control and the “Rate of released MDA” value (human fibroblasts; [1]) was 25 % against control.

With `O=c1cc(CO)occ1O` [kojic acid] the “rate of released melanin from treated B16 melanocytes (in words)” value (B16 melanocytes) was “strongly decreased”, the “Rate of cellular proteins” value (B16 melanocytes; dose 0.03 % w/v) was 117 % against control and the Rate of melanin (B16 melanocytes; dose 0.03 % w/v) was 34 % against control.

For `CC(=O)Oc1ccccc1C(=O)O` [Aspirin ®, Aspirin], the “level of cell number from UV-B irradiated keratinocytes (in words)” value (human keratinocytes) was “strongly increased”, the “level of released LDH from UV-B irradiated keratinocytes (in words)” value (human keratinocytes) was “strongly decreased” and the “level of released PGE2 from UV-B irradiated keratinocytes (in words)” value (human keratinocytes) was “strongly decreased”. For the same compound, the Cell number (human keratinocytes; [2]) was 59 % against control, the “Level of released LDH” value (human keratinocytes; [2]) was 8 % against control and the “Level of released PGE2” value (human keratinocytes; [2]) was 0 % against control.
